Source: patent publication US5246956A, “N-imidazolyl derivatives of substituted alkoxyimino tetrahydronaphthalenes and chromans having antithromboxane A2 activity” (Farmitalia Carlo Erba S.r.l., priority 1991, dated 1993)
pIC50: −log10 of the molar value. Read-outs that look alike come from different tables or passages of the source.

Tests used:
TxB2 synthesis = TxB2 synthesis inhibition in vitro, in whole blood of normal rats; type: cell-based, rat (Sprague Dawley)
Method: (§1) The effects of a representative group of compounds of the invention were evaluated, in comparison with known compounds, on TxB2 synthesis inhibition in vitro, in whole blood of normal rates, and on TxA2 antagonism in a binding assay in washed human platelets.
TxB2 synthesis inhibition
Blood was withdrawn from the abdominal aorta of normal Sprague Dawley rats (Charles River Italy) under light ether anaesthesia. The blood was immediately divided in portions of 0.5 ml and distributed in glass tubes each containing a concentration of the test compound, or of the reference compounds.
Samples were then allowed to clot for 1 hour at 37° C., centrifuged at 3000 rpm for 10 min, and serum collected and stored at -20° C. until assayed.

[1] = molecular target: T1, TXA2 receptor (washed human platelets) (Homo sapiens, UniProt P21731); assay: Displacement of [^3 H]-SQ 29,548 binding to washed human platelets (TxA2 antagonism)
T1 construct: endogenous in cells; host or cells: washed human platelets from healthy volunteers
T1 sequence (P21731 1-343): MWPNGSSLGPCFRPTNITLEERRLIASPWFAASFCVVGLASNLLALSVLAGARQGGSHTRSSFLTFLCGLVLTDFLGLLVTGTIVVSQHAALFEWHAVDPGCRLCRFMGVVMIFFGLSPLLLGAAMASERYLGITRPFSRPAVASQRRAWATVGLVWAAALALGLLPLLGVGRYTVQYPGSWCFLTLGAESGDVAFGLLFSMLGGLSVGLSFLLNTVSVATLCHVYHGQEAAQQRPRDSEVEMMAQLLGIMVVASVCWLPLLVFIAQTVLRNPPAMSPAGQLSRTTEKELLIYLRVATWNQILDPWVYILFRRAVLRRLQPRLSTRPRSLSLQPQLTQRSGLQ
Method: as §1
Displacement of [^3 H]--SO 29,548 binding to washed human platelets.
Blood from healthy volunteers of both sexes who had not taken any medication for at least 10 days was collected into one-tenth volume of acid citrate dextrose containing indomethacin (28 μM). Platelet rich plasma (PRP), obtained by centrifugation of the blood at 200 xg for 20 min. was washed twic (1000 xg for 10 min). The platelets are then resuspended in Tyrode-Hepes buffer (pH 7.4) to a final concentration of […] and incubated for 0-60 min at 25° with [^3 H]--SQ 29,548 (5 nM). For displacement experiments various concentrations (10^-9 -10^-4 M) of competing ligands were added and incubated for 30 min at 25° C. […] After the incubation, 4 ml of ice-cold TRIS-HC1 buffer (10 mM, pH 7.4) was added to each tube and the reaction mixture was immediately filtered by suction through a Whatman GF/C glass filter disc which was washed 2 times with ice-cold TRIS-CH1 (4 ml) and counted for radioactivity by a Packard β-counter.
The binding data were analysed by computerized non-linear curve fitting using the Ligand program and expressed as ID50.

[2] = Table 3, rat whole blood, read-out: TxB2 synthesis IC50
[3] = Rattus norvegicus, Table 2, whole blood of normal rats, 1 hour at 37° C., read-out: In vitro effect on TxB2 synthesis in normal rats, IC50 (whole blood)

CC(=O)Oc1ccccc1C(=O)O [ASA, acetylsalicilic acid]
pIC50 (TxB2 synthesis; Rattus norvegicus, 1 h, read-out: In vitro effect on TxB2 synthesis in normal rats, IC50 (whole blood)): 4.51

COc1ccc2c(c1)/C(=N/OCCCCC(=O)O)C(n1ccnc1)C(c1ccc(OC)c(OC)c1)O2 (racemic) [FCE 26603, (+-)-(Z)-5-[[2-(3,4-dimethoxyphenyl)-3-(1H-imidazol-1-yl)-2,3-dihydro-6-methoxy-4H-1-benzopyranylidene]aminoxy]pentanoic acid]
pIC50 ([1]; Table 3, washed human platelets, read-out: ^3 H-SQ 29548 binding displacement IC50): 7.00
pIC50 (TxB2 synthesis; [2]): 6.70

O=C(O)CCCCCO/N=C1/c2ccccc2OC(c2ccccc2)C1n1ccnc1 (racemic) [FCE 27016, (+-)-(Z)-6-[[2-phenyl-3-(1H-imidazol-1-yl)-2,3-dihydro-4H-benzopyranylidene]aminoxy]hexanoic acid]
pIC50 ([1]; Table 1, washed human platelets, 30 min at 25° C., read-out: ^3 H SQ 29548 binding displacement (washed human platelet) IC50): 7.48
TxA2 antagonism ([1]; platelets, in words): patent TxA2 antagonist
affinity for the receptor compared with BM 13505 and BM 13177 ([1]; washed human platelets, in words): greater than those of compounds BM 13505 and BM 13177

O=C(O)Cc1ccc(CCNS(=O)(=O)c2ccc(Cl)cc2)cc1 [BM 13505]
TxB2 synthesis IC50 (TxB2 synthesis; Table 3, rat whole blood): inactive

O=C(O)COc1ccc(CCNS(=O)(=O)c2ccccc2)cc1 [BM 13177]
TxB2 synthesis IC50 (TxB2 synthesis; Table 3, rat whole blood): inactive

CC1Oc2ccccc2/C(=N/OCCCCC(=O)O)C1n1ccnc1 (stereo not shown) [FCE 26365, 5-[[2-methyl-3-(1H-imidazol-1-yl)-2,3-dihydro-4H-1-benzopyranylidene]aminoxy]pentanoic acid]
pIC50 (TxB2 synthesis; [3]): 7.57
inhibition of platelet TxA2 synthase (TxB2 synthesis; in words): potent inhibitor of platelet TxA2 synthase

O=C(O)c1ccc(OCCn2ccnc2)cc1 [Dazoxiben]
^3 H-SQ 29548 binding displacement IC50 ([1]; Table 3, washed human platelets): inactive
pIC50 (TxB2 synthesis; [3]): 5.92
pIC50 (TxB2 synthesis; [2]): 5.92
